Results reported in patent US12338203B2 (TAISHO PHARMACEUTICAL CO., LTD., priority 2019, dated 2025).

target: T1, human LPAR1 (Homo sapiens, UniProt Q92633); test: Test Example 1: antagonism against response of LPA-induced increase in intracellular Ca2+ concentration in RH7777 cells stably expressing human LPAR1; assay type: cell-based; details: RH7777 cells stably expressing human LPAR1; Fluo-4 fluorescence, FDSS6000; read-out: IC50 value (concentration producing 50% antagonism against response of LPA-induced increase in intracellular Ca2+ concentration) (converted)
T1 construct: expressed in transfected cells
T1 sequence (Q92633 whole entry): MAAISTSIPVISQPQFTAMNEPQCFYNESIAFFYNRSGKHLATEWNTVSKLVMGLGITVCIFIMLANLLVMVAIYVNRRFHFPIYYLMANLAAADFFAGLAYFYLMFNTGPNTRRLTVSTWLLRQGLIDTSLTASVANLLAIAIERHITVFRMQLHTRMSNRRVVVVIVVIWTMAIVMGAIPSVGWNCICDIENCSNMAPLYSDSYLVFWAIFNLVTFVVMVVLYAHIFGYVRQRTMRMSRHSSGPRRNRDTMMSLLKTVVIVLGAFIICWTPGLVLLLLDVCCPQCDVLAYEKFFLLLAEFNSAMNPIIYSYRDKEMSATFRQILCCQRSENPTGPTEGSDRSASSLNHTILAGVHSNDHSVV
Summary of the method: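 RH7777 cells stably transfected with human LPAR1 were preincubated with test compound 30 min at 37 °C in HBSS/20 mM HEPES/probenecid/0.05% BSA buffer, pH 7.4, then LPA-stimulated.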

SMILES | IC50 [nM]
CCOc1cc([C@@H](C)N(CCCCc2cccc(OC)c2)C(=O)NC2(C(=O)O)CC(F)(F)C2)cc(OCC)c1C [Example 4-18, 1-({[(1R)-1-(3,5-Diethoxy-4-Methylphenyl)Ethyl][4-(3-Methoxyphenyl)Butyl]Carbamoyl}Amino)-3,3-Difluorocyclobutane-1-Carboxylic Acid] | 18.1
CCOc1cc([C@@H](C)N(CCCCc2ccc(OC)cc2)C(=O)NC2(C(=O)O)CC(F)(F)C2)cc(OCC)c1C [Example 4-19] | 60.8
CCOc1cc([C@@H](C)N(CCc2ccc(OC)cc2)C(=O)NC2(C(=O)O)CC(F)(F)C2)cc(OCC)c1C [Example 4-20] | 148
CCOc1cc([C@@H](C)N(CCC2Cc3ccccc3C2)C(=O)NC2(C(=O)O)CC(F)(F)C2)cc(OCC)c1C [Example 4-21, 1-({[(1R)-1-(3,5-Diethoxy-4-Methylphenyl)Ethyl][2-(2,3-Dihydro-1H-Inden-2-Yl)Ethyl]Carbamoyl}Amino)-3,3-Difluorocyclobutane-1-Carboxylic Acid] | 2.74
CCOc1cc([C@@H](C)N(CCC2Cc3ccccc3C2)C(=O)NC2(C(=O)O)CC(OC)C2)cc(OCC)c1C(C)=O (some centres unmarked) [Example 4-22] | 7.62
CCOc1cc([C@@H](C)N(CCC2Cc3ccccc3C2)C(=O)NC2(C(=O)O)CC(OC)C2)cc(OCC)c1C(C)=O (some centres unmarked) [Example 4-23] | 7.17
CCOc1cc([C@@H](C)N(CCC2Cc3ccccc3C2)C(=O)NC2(C(=O)O)CC(OC)C2)c(C)c(OCC)c1C(C)=O (some centres unmarked) [Example 4-24] | 5.57
COc1cc(C(C)N(CCCn2cc(C)cn2)C(=O)NC2(C(=O)O)CC(F)(F)C2)cc(OC)c1C (centres unmarked) [Example 4-26] | 1830
CCOc1cc([C@@H](C)N(CCCc2ccccn2)C(=O)NC2(C(=O)O)CC(F)(F)C2)cc(OCC)c1C [Example 4-27] | 220
CCOc1cc([C@@H](C)N(CCCCc2cccnc2)C(=O)NC2(C(=O)O)CC(F)(F)C2)cc(OCC)c1C [Example 4-29] | 17.6
CCOc1cc([C@@H](C)N(CCCc2ccncc2)C(=O)NC2(C(=O)O)CC(F)(F)C2)cc(COC)c1C [Example 4-30] | 178
CCOc1cc([C@@H](C)N(CCN2Cc3ccccc3C2)C(=O)NC2(C(=O)O)CC(F)(F)C2)cc(OCC)c1C [Example 4-31] | 28.4
CCOc1cc([C@@H](C)N(Cc2cc3ccccc3[nH]2)C(=O)NC2(C(=O)O)CC(F)(F)C2)cc(OCC)c1C [Example 4-32] | 733
CCOc1cc([C@@H](C)N(CCCCC2CCNCC2)C(=O)NC2(C(=O)O)CC(F)(F)C2)cc(OCC)c1C [Example 4-34, 1-({[(1R)-1-(3,5-Diethoxy-4-Methylphenyl)Ethyl][4-(Piperidin-4-Yl)Butyl]Carbamoyl}Amino)-3,3-Difluorocyclobutane-1-Carboxylic Acid] | 7630
CCOc1cc([C@@H](C)N(CCCc2ccccc2)C(=O)NC2(C(=O)O)CC(F)(F)C2)cc(OCC)c1C(C)=O [Example 4-35, 1-({[(1R)-1-(4-Acetyl-3,5-Diethoxyphenyl)Ethyl](3-Phenylpropyl) Carbamoyl}Amino)-3,3-Difluorocyclobutane-1-Carboxylic Acid] | 2.26
CCOc1cc([C@@H](C)N(CCCc2ccccc2)C(=O)NC2(C(=O)O)CC(F)(F)C2)cc(OCC)c1C [Example 4-36] | 5.7
CCOc1cc(C(C)N(CCCCCc2ccccc2)C(=O)NC2(C(=O)O)CC(F)(F)C2)cc(OCC)c1C (centres unmarked) [Example 4-37] | 30.6
CCOc1cc([C@@H](C)N(CC(C)CCc2ccccc2)C(=O)NC2(C(=O)O)CC(F)(F)C2)cc(OCC)c1C (some centres unmarked) [Example 4-38] | 10.5
CCOc1cc([C@@H](C)N(CC(C)CCc2ccccc2)C(=O)NC2(C(=O)O)Cc3ccccc3C2)cc(OCC)c1C (some centres unmarked) [Example 4-39] | 46.4
CCOc1cc([C@@H](C)N(CCCC(C)c2ccccc2)C(=O)NC2(C(=O)O)CC(F)(F)C2)cc(OCC)c1C (stereo partly drawn) [Example 4-40, 1-({[(1R)-1-(3,5-Diethoxy-4-Methylphenyl)Ethyl](4-Phenylpentyl) Carbamoyl}Amino)-3,3-Difluorocyclobutane-1-Carboxylic Acid] | 3.15
